Data on 15 compounds can be found in ChEMBL document CHEMBL4610053, “Synthesis and biological evaluation of 2-quinolineacrylamides” (Bioorg Med Chem, 2020).

In assay [1] the test system is A549. Kind of assay: Antiproliferative activity against human A549 cells assessed as reduction in cell viability incubated for 48 hrs by Sulforhodamine B assay. The settings on record: A549, 48 h. It is filed as functional.
Assay [2] has as its system HCT-116. The experiment in a line: Antiproliferative activity against human HCT116 cells assessed as reduction in cell viability incubated for 48 hrs by Sulforhodamine B assay. It is filed as functional. The note with it: HCT-116, 48 h.
Assay [3] has as its target Histone deacetylase 2 (Homo sapiens, UniProt Q92769). Kind of assay: Inhibition of recombinant human C-terminal GST-tagged HDAC2 (1 to 488 residues) expressed in insect cells using RHK-K(Ac)-AMC as substrate measured after 60 mins by fluorescence assay.
Assay [4] deals with T1, Protein deacetylase HDAC6 (Homo sapiens) (UniProt Q9UBN7).
T1 sequence (whole entry): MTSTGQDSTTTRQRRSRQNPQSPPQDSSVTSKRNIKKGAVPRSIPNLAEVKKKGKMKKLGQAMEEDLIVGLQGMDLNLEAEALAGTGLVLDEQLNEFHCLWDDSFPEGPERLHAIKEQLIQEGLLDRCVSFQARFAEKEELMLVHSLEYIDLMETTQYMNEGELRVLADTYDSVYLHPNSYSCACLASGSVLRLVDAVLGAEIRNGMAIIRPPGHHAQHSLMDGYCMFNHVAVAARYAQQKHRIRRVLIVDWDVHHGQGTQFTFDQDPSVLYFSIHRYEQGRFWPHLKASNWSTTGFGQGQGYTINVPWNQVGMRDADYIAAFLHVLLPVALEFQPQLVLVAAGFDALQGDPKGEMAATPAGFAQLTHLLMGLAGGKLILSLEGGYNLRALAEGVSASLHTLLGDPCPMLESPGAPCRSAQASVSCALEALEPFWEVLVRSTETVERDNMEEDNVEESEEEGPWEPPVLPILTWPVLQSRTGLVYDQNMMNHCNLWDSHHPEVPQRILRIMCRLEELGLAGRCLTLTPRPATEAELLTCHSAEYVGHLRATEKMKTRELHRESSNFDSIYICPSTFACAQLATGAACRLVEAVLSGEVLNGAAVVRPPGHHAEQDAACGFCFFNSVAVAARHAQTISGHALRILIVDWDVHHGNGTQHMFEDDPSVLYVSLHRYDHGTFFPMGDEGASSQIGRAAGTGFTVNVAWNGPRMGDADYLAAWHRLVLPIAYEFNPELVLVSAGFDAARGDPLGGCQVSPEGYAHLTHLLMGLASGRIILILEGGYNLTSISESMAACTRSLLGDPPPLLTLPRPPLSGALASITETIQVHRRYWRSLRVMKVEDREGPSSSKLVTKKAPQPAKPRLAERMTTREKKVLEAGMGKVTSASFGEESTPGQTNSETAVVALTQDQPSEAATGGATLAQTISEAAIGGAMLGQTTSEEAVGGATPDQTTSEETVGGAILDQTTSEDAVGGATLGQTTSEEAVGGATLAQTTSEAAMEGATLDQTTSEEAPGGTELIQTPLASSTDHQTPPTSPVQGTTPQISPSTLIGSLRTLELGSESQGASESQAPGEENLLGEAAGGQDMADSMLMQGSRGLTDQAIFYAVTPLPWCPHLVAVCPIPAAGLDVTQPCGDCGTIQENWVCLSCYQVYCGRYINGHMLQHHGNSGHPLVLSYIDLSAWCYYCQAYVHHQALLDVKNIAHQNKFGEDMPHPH
Kind of assay: Inhibition of HDAC6 in human HCT116 cells assessed as increase in tubulin acetylation measured after 48 hrs by Western blot analysis. The settings on record: HCT-116. It counts as cell-based.

Assay [5] is filed under the species Homo sapiens. Kind of assay: Selectivity ratio of IC50 for recombinant human C-terminal His-tagged HDAC8 (1 to 377 residues) expressed in insect cells to IC50 of human HDAC6.
Assay [6] concerns the target T2, Histone deacetylase 8 (Homo sapiens, UniProt Q9BY41).
T2 sequence (Q9BY41 whole entry): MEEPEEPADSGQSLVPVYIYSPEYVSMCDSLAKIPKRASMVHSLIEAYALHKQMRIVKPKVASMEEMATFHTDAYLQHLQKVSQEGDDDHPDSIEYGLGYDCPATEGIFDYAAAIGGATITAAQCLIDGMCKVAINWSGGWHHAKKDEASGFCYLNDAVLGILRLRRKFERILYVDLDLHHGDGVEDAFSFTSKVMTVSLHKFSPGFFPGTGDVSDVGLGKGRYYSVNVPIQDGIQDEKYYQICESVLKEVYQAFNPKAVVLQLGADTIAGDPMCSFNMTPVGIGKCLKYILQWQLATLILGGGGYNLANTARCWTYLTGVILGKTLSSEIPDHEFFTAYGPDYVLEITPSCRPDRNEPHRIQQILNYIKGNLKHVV
Kind of assay: Inhibition of recombinant human C-terminal His-tagged HDAC8 (1 to 377 residues) expressed in insect cells using RHK-K(Ac)-AMC as substrate measured after 60 mins by fluorescence assay.

The target in assay [7] is Class 1 histone deacetylase (Homo sapiens) (UniProt Q13547+O15379+Q92769+Q9BY41). Kind of assay: Inhibition of class 1 HDAC in human HCT116 cells assessed as increase in H3 acetylation measured after 48 hrs by Western blot analysis. It is filed as cell-based. The settings on record: HCT-116.
For assay [8], the species on record is Homo sapiens. The experiment in a line: Selectivity ratio of IC50 for recombinant human C-terminal GST-tagged HDAC2 (1 to 488 residues) expressed in insect cells to IC50 of human HDAC6.
In assay [9] the target is T3, Protein deacetylase HDAC6 (Homo sapiens, UniProt Q9UBN7).
T3 sequence (Q9UBN7 whole entry): T1 sequence (whole entry)
The experiment in a line: Inhibition of human HDAC6 using fluorogenic-(RHKKAc) as substrate by fluorescence assay.

Assay [10] has as its target Histone deacetylase 1 (Homo sapiens, UniProt Q13547). The experiment in a line: Inhibition of recombinant human C-terminal FLAG/His-tagged HDAC1 (1 to 482 residues) expressed in Sf21 insect cells by using RHK-K(Ac)-AMC as substrate measured after 60 mins by fluorescence assay.
The species entered for assay [11] is Homo sapiens. Kind of assay: Selectivity ratio of IC50 for recombinant human C-terminal FLAG/His-tagged HDAC1 (1 to 482 residues) expressed in Sf21 insect cells to IC50 of human HDAC6.

Sequence of Histone deacetylase 1 (Q13547 whole entry, the tested form may be a part): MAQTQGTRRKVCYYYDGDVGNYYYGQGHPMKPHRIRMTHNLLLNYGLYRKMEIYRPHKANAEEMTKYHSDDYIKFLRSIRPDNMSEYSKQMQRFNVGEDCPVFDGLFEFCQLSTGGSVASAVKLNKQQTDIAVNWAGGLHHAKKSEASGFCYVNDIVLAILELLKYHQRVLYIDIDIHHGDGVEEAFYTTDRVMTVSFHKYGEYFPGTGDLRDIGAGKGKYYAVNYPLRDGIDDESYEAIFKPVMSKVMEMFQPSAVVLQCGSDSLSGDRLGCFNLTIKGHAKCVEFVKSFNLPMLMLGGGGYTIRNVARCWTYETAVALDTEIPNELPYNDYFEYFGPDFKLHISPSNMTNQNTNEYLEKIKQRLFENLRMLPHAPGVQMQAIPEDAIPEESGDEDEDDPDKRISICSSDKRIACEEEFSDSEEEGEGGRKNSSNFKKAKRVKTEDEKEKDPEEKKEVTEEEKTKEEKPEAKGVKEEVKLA
Sequence of Histone deacetylase 2 (Q92769 whole entry, the tested form may be a part): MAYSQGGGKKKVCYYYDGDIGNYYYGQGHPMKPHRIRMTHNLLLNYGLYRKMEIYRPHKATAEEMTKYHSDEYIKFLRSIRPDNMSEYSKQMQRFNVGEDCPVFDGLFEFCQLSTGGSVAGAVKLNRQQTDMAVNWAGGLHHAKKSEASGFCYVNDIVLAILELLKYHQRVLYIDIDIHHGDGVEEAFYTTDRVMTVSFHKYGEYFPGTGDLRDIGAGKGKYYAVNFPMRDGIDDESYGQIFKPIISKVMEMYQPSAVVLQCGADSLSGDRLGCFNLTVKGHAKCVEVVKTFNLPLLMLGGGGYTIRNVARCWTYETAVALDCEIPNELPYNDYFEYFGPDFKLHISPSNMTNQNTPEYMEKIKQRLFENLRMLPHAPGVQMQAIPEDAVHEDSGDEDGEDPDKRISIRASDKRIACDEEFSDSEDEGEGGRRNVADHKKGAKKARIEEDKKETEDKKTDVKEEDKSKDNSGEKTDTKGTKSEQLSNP

Regarding `COc1ccc(C(=O)c2ccc3nc(/C=C/C(=O)NO)ccc3c2)cc1OC`, the values for the concentration for 50% growth inhibition (GI50) in [1] and in assay [2] were 3310 nM and 1780 nM, respectively.
In the case of `O=C(/C=C/c1ccc2cc(C(=O)c3ccc(F)cc3)ccc2n1)NO`, the GI50 was 1260 nM in [1] and 1840 nM in assay [2].
Take `COc1ccc(C(=O)c2ccc3nc(/C=C/C(=O)NO)ccc3c2)cc1`: the GI50 was 1890 nM in assay [1] and 2300 nM in assay [2].
For the compound `CC(C)c1ccc(Oc2ccc3nc(/C=C/C(=O)NO)ccc3c2)cc1`, the results for the 50% growth inhibitory concentration (GI50) in assay [1] and in assay [2] were 3280 nM and 4080 nM, respectively.
With `COc1ccc(-c2ccc3nc(/C=C/C(=O)NO)ccc3c2)cc1`, the IC50 in assay [3] (read-out: IC50) is 1310 nM; in assay [6], 4770 nM; in assay [9], 49 nM; in [10] (sf21), “Not Active”. In addition, the inhibition entry in assay [4] and in [7] was “Dose-dependent effect” throughout. Besides, the Ratio IC50 in assay [5] turned out to be 97; in assay [8], 27. The GI50 in [1] was determined as 2350 nM; in [2], 1470 nM.
Turning to `O=C(/C=C/c1ccc2cc(-c3ccoc3)ccc2n1)NO`, the GI50 in assay [1] was 1920 nM; in assay [2], 1560 nM.
For `O=C(CCCCCCC(=O)Nc1ccccc1)NO` [VORINOSTAT], the GI50 is 2620 nM in [1] and 440 nM in assay [2].
For `COc1cccc(Oc2ccc3nc(/C=C/C(=O)NO)ccc3c2)c1` the same measures were 4350 nM and 2740 nM.
Regarding `CN1CCc2c(c3ccccc3n2Cc2ccc(C(=O)NO)cc2)C1` [TUBASTATIN A], the GI50 in [1] and in assay [2] was over 5000 nM in each case.
For `COc1ccc(Oc2ccc3nc(/C=C/C(=O)NO)ccc3c2)cc1`, the IC50 result in [3] was “Not Active”; in assay [6], 7750 nM; in assay [9], 20.7 nM; in assay [10] (read-out: IC50), over 10000 nM. Also, the inhibition entry in assay [4] and in assay [7] was “Dose-dependent effect” throughout. The Ratio IC50 is 374 in [5] and over 483 in [11]. For the same compound, the GI50 was found to be 3200 nM in assay [1] and 1820 nM in assay [2].
In the case of `COc1cc(Oc2ccc3nc(/C=C/C(=O)NO)ccc3c2)cc(OC)c1OC`, the IC50 in assay [3] (read-out: IC50) worked out at 18.7 nM; in assay [6], 2820 nM; in assay [9], 26.5 nM; in [10] (read-out: IC50) it was 1770 nM. In addition, the inhibition result in [4] and in [7] was “Dose-dependent effect” throughout. Moreover, the Ratio IC50 amounted to 106 in assay [5], 0.7 in assay [8] and 67 in assay [11]. For the same compound, the GI50 in [1] worked out at 2430 nM; in assay [2], 740 nM.
Regarding `COc1ccc(S(=O)(=O)Nc2ccc3nc(/C=C/C(=O)NO)ccc3c2)cc1`, the GI50 in [1] was 4310 nM; in [2] it was 6680 nM.
In the case of `O=C(/C=C/c1ccc2cc(Oc3ccc([N+](=O)[O-])cc3)ccc2n1)NO`, the IC50 entry is “Not Active” in assay [3], 2320 nM in assay [6], 51.4 nM in assay [9] and 6050 nM in [10] (read-out: IC50). In addition, the inhibition result in [4] and in assay [7] was “Dose-dependent effect” throughout. The Ratio IC50 in assay [5] is 45; in [11] it was 118. In addition, the GI50 in assay [1] was found to be 1630 nM; in assay [2], 1000 nM.
In the case of `COc1cc(C(=O)c2ccc3nc(/C=C/C(=O)NO)ccc3c2)cc(OC)c1OC`, the figures for the GI50 in [1] and in assay [2] were 3350 nM and 2620 nM, respectively.
Turning to `Cc1ccc(C(=O)c2ccc3nc(/C=C/C(=O)NO)ccc3c2)cc1`, the values for the GI50 in assay [1] and in assay [2] were 2580 nM and 2510 nM, respectively.
